Results reported in patent publication US20230117592A1 (SRI International, priority 2019, published 2023).
Where “and” joins values, the source holds several entries; their conditions need not be identical. Identical values can stand only once.

How the values were obtained:
12-LOX = molecular target: T1, 12-LOX (Homo sapiens, UniProt P18054); test: 12-LOX fluorescent assay (in vitro lipoxygenase inhibition); assay type: biochemical; settings: 100 nM recombinant 12-LOX, 20 μM AA, DHR123 fluorescence; several values in a cell = repeat determinations; read-out: IC50 (μM) values for in vitro lipoxygenase inhibition, 12-LOX
T1 sequence (P18054 1-663): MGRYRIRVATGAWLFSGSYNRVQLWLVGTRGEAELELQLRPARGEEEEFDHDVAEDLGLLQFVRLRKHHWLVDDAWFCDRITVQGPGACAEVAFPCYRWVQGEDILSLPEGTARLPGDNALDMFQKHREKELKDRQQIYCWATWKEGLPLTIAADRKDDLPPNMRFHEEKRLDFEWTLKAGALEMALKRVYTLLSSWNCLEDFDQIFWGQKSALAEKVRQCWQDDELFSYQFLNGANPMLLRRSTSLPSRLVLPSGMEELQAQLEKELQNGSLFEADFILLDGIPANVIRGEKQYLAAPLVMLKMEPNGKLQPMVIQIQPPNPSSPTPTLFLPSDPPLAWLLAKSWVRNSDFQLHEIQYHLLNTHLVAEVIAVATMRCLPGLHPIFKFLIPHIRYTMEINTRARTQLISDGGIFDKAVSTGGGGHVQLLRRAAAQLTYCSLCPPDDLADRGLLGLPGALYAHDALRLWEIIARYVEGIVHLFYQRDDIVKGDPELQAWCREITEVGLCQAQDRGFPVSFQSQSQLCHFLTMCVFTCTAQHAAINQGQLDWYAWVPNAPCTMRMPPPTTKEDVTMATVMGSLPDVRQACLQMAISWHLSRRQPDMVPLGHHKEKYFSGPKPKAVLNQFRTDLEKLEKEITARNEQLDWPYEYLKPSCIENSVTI
Outline: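 Fluorescent assay in 50 mM Tris pH 7.5, 0.05% Tween-20, with 100 nM recombinant 12-LOX preincubated 15 min with inhibitor. Reaction was started with 20 μM arachidonic acid substrate and 1 μM DHR123. Percent inhibition per dose was fitted by 4-parameter logistic or sigmoidal dose-response for IC50.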

5-LOX = molecular target: T2, 5-LOX (Homo sapiens, UniProt P09917); test: 5-LOX fluorescent assay (in vitro lipoxygenase inhibition); assay type: biochemical; settings: recombinant 5-LOX cell lysate, 20 μM AA, DHR123 fluorescence; several values in a cell = repeat determinations; read-out: IC50 (μM) values for in vitro lipoxygenase inhibition, 5-LOX
T2 sequence (P09917 1-674): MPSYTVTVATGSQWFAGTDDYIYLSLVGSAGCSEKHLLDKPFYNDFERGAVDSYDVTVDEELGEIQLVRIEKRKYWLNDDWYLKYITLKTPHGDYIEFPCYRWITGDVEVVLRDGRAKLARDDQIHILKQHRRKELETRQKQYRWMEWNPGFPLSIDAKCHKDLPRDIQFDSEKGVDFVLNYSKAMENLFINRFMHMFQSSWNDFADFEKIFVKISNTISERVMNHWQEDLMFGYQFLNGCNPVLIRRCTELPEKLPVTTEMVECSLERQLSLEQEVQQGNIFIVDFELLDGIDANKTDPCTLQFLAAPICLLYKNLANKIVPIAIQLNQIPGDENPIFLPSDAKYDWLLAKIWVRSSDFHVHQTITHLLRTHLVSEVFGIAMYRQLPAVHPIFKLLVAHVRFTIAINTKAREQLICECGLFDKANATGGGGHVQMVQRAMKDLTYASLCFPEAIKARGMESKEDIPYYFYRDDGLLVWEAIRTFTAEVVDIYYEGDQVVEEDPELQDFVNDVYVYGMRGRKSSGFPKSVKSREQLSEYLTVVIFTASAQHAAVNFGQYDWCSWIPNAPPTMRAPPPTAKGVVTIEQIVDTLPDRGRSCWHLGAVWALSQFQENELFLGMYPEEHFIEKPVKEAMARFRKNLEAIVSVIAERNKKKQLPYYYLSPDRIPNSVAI
Outline: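 Recombinant human 5-LOX cell lysate pre-incubated 15 min with inhibitor in 50 mM Tris pH 7.5, 0.1 mM EDTA, 0.3 mM CaCl2. Reaction started with 20 μM arachidonic acid plus 100 μM ATP, with 1 μM DHR123 as fluorescent probe. IC50 from percent inhibition per dose via 4-parameter logistic or sigmoidal dose-response fit.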

| IC50 (12-LOX) [µM] | IC50 (5-LOX) | Compound |
| --- | --- | --- |
| 0.32 | 0.57 µM | FC(F)(F)c1cc(NC2(c3ccccc3)COC2)ccc1NCCN1CCOCC1 [SS20308-0317-01, N^1-(2-morpholinoethyl)-N^4-(3-phenyloxetan-3-yl)-2-(trifluoromethyl)benzene-1,4-diamine] |
| 0.05 | 0.15 µM | Fc1ccc(Nc2ccc(NCC3(Cn4cncn4)COC3)c(OC(F)(F)F)c2)cc1 [SS20308-0319-01, N^1-((3-((1H-1,2,4-triazol-1-yl)methyl)oxetan-3-yl)methyl)-N^4-(4-fluorophenyl)-2-(trifluoromethoxy)benzene-1,4-diamine] |
| 0.08 | 0.06 µM | Fc1ccc(Nc2ccc(NCC3(CN4CCCC4)COC3)c(C(F)(F)F)c2)cc1 [SS20308-0320-01, N^4-(4-fluorophenyl)-N^1-((3-(pyrrolidin-1-ylmethyl)oxetan-3-yl)methyl)-2-(trifluoromethyl)benzene-1,4-diamine] |
| 0.05 | 0.05 µM | FC(F)(F)c1cc(Nc2ccc(Cl)cc2)ccc1NCC1(Cn2cncn2)COC1 [SS20308-0322-01, N^1-((3-((1H-1,2,4-triazol-1-yl)methyl)oxetan-3-yl)methyl)-N^4-(4-chlorophenyl)-2-(trifluoromethyl)benzene-1,4-diamine] |
| 0.02 | 0.05 µM | Cc1cc(Nc2ccc(Cl)c(F)c2)ccc1NCC1(CN2CCOCC2)COC1 [SS20308-0323-01, N^4-(4-chloro-3-fluorophenyl)-2-methyl-N^1-((3-(morpholinomethyl)oxetan-3-yl)methyl) benzene-1,4-diamine] |
| 0.03 | 0.15 µM and 0.44 µM | Cc1cc(Nc2ccc(Cl)c(F)c2)ccc1NCC1(CN2CCCC2)COC1 [SS20308-0324-01, N^4-(4-chloro-3-fluorophenyl)-2-methyl-N^1-((3-(pyrrolidin-1-ylmethyl)oxetan-3-yl)methyl)benzene-1,4-diamine] |
| 0.03 | 0.04 µM | FC(F)(F)C(Nc1ccc(NCCCN2CCOCC2)c(C2CCCCC2)c1)c1ccccc1 (stereo not drawn) [SS20308-0325-01, 2-cyclohexyl-N^1-(3-morpholinopropyl)-N^4-(2,2,2-trifluoro-1-phenylethyl)benzene-1,4-diamine] |
| 0.04 | 0.07 µM | Cc1cc(Nc2ccc(Cl)c(F)c2)ccc1NCC1(Cn2cccn2)COC1 [SS20308-0327-01, N1-((3-((1H-pyrazol-1-yl)methyl)oxetan-3-yl)methyl)-N4-(4-chloro-3-fluorophenyl)-2-methylbenzene-1,4-diamine] |
| 0.03 | 0.04 µM | Cc1cc(Nc2ccc(Cl)c(F)c2)ccc1NCC1(Cn2ccnc2)COC1 [SS20308-0328-01, N^1-((3-((1H-imidazol-1-yl)methyl)oxetan-3-yl)methyl)-N^4-(4-chloro-3-fluorophenyl)-2-methylbenzene-1,4-diamine] |
